Measurements as given in patent publication US7238374B2, “Process and substances for the release of a growth-regulating factor from endothelial cells” (priority 1998, dated 2007).

How the values were obtained:
[1] = Partition between octanol and aqueous phosphate buffer pH 7; assay type: physicochemical
Experimental: Cells in a culture medium can be viewed as a two-phase system consisting of water and lipids. The distribution of the alkaloids in cell cultures and in mixtures of octanol and water was studied. […] The alkaloids were partitioned between equal volumes of octanol and aqueous phosphate buffer pH 7 (0.01 M) at 20° C. The concentrations c of the alkaloids were determined by HPLC analysis and the coefficients of distribution [formula] were calculated.

[2] = stimulant IMM-2418 (1.1 μM)
Experimental: A RPMI-1640 culture medium (Sigma-Aldrich Company, St. Louis, USA) completed with 10% by volume fetal calf serum, 2 mM glutamin, 50 units/ml penicillin G, and 50 μg/ml streptomycin was used.

[3] = Equilibria of isomers in an octanol-water two-phase system; assay type: physicochemical; details: octanol-water system (1:1) with mitraphylline and isomitraphylline, approximately pH 5
Text: As expected the equilibrium of isomers in a two-phase system (1aq ? 1org, 2aq ? 2org, FIG. 3) depends not only on the pH value of the aqueous phase but also on the amount and nature of the organic phase, For an example, the equilibria of mitraphylline and isomitraphylline in an octanol-water system (1:1) at pH values from 3 to 7 are shown (FIG. 4). It can be seen that in the pH range from 4 to 7 isomitraphylline is predominant in the octanol phase, with a maximum of 94 mol-% at approximately pH 5. However, below pH 3 mitraphylline begins to prevail in the aqueous phase. At no pH value is isomitraphylline produced in the aqueous phase to a reasonable extent. Therefore, the distribution of the isomers in a 2-phase system is clearly different compared to the situation in a purely aqueous solution.

[4] = octanol / aqueous phosphate buffer pH 7 (0.01 M), equal volumes, 20° C.

Row | Structure (SMILES) | log KO/W (common logarithm of the partition coefficient) [1, 4] | log KO/W (common logarithm of the partition coefficient) ([1]; pH 7) | also measured
1 | CC[C@H]1CN2CC[C@@]3(C(=O)Nc4ccccc43)[C@@H]2C[C@@H]1/C(=C\OC)C(=O)OC [Isorhynchophylline] | 3.1 |  | alkaloid concentration in RPMI-1640 nutrient medium, 7 Days [2]: 0.27 mg/L; alkaloid concentration in RPMI-1640 nutrient medium, Start [2]: 0.27 mg/L
2 | COC(=O)C1=CO[C@@H](C)[C@@H]2CN3CC[C@]4(C(=O)Nc5ccccc54)[C@@H]3C[C@H]12 [Pteropodine] |  | 2.9 | 
3 | CC[C@H]1CN2CC[C@]3(C(=O)Nc4ccccc43)[C@@H]2C[C@@H]1/C(=C\OC)C(=O)OC [Rhynchophylline] | 2.7 |  | alkaloid concentration in RPMI-1640 nutrient medium, 7 Days [2]: 0.13 mg/L; alkaloid concentration in RPMI-1640 nutrient medium, Start [2]: 0.15 mg/L
4 | COC(=O)C1=CO[C@@H](C)[C@H]2CN3CC[C@]4(C(=O)Nc5ccccc54)[C@@H]3C[C@H]12 [Mitraphylline] |  | 2.5 | 
5 | COC(=O)C1=CO[C@@H](C)[C@@H]2CN3CC[C@]4(C(=O)Nc5ccccc54)[C@H]3C[C@H]12 [Uncarine F] | 3.1 |  | 
6 | COC(=O)C1=CO[C@@H](C)[C@H]2CN3CC[C@@]4(C(=O)Nc5ccccc54)[C@@H]3C[C@H]12 [Isomitraphylline] |  | 2.8 | equilibrium concentration in the octanol phase, maximum [3]: 94 mol-%
7 | COC(=O)C1=CO[C@@H](C)[C@@H]2CN3CC[C@@]4(C(=O)Nc5ccccc54)[C@H]3C[C@H]12 [Speciophylline] |  | 1.4 | 
8 | COC(=O)C1=CO[C@@H](C)[C@@H]2CN3CC[C@@]4(C(=O)Nc5ccccc54)[C@@H]3C[C@H]12 [Isopteropodine] |  | 3.2 | 
